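Each compound was tested at five concentrations against cells in 96-well plates for 48 hours. The concentration for 50% growth inhibition is given as GI50.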 The source made the active and inactive calls. Cut-off read from the data, not from the text of the source: active = GI50 up to about 1.1 µM and inactive = higher.
Columns and labels:
Assay in all cases: growth of human tumour cells (NCI), 48 h
SF-268 = system: SF-268
Malme-3M = system: Malme-3M
ACHN = system: ACHN
M14 = system: M14
SK-OV-3 = system: SK-OV-3
UACC-62 = system: UACC-62
K562 = system: K562
IGROV-1 = system: IGROV-1
EKVX = system: EKVX
A549 = system: A549
SR = system: SR
HCC 2998 = system: HCC 2998
CAKI-1 = system: CAKI-1
CCRF-CEM = system: CCRF-CEM
DU-145 = system: DU-145
HCT-116 = system: HCT-116
HL-60 = system: HL-60
Hs-578T = system: Hs-578T
MDA-N = system: MDA-N
NCI/ADR-RES = system: NCI/ADR-RES

Row | SMILES | GI50 (SF-268) | GI50 (Malme-3M) | GI50 (ACHN) | GI50 (M14) | GI50 (SK-OV-3) | GI50 (UACC-62) | GI50 (K562) | GI50 (IGROV-1) | GI50 (EKVX) | GI50 (A549) | GI50 (SR) | GI50 (HCC 2998) | GI50 (CAKI-1) | GI50 (CCRF-CEM) | GI50 (DU-145) | GI50 (HCT-116) | GI50 (HL-60) | GI50 (Hs-578T) | GI50 (MDA-N) | GI50 (NCI/ADR-RES)
1 | CC(=O)OCC1OC(N2C(=O)C(=O)c3ccccc32)C(OC(C)=O)C(OC(C)=O)C1OC(C)=O (stereo not drawn) | > 100 µM (inactive) | > 100 µM (inactive) | > 100 µM (inactive) | > 100 µM (inactive) | > 100 µM (inactive) | > 100 µM (inactive) | > 100 µM (inactive) | > 100 µM (inactive) | > 100 µM (inactive) | > 100 µM (inactive) | > 100 µM (inactive) | > 100 µM (inactive) | > 100 µM (inactive) | > 100 µM (inactive) |  |  |  |  |  | 
2 | CC(C)(C)OC(=O)N1CCCC1=O | > 10 µM (inactive) | > 10 µM (inactive) | > 10 µM (inactive) | > 10 µM (inactive) | > 10 µM (inactive) | > 10 µM (inactive) | > 10 µM (inactive) | > 10 µM (inactive) | > 10 µM (inactive) | > 10 µM (inactive) | > 10 µM (inactive) | > 10 µM (inactive) |  | > 10 µM (inactive) | > 10 µM (inactive) | > 10 µM (inactive) | > 10 µM (inactive) | > 10 µM (inactive) | > 10 µM (inactive) | 
3 | Cc1cccc(C)c1NC(=O)CCC(=O)CC(=O)C(C)C | > 100 µM (inactive) | > 100 µM (inactive) | > 100 µM (inactive) | > 100 µM (inactive) | > 100 µM (inactive) | > 100 µM (inactive) | > 100 µM (inactive) | > 100 µM (inactive) | > 100 µM (inactive) | > 100 µM (inactive) | > 100 µM (inactive) | > 100 µM (inactive) | > 100 µM (inactive) | > 100 µM (inactive) |  | > 100 µM (inactive) | > 100 µM (inactive) |  |  | 
4 | Cc1c(Cl)ccc2[s+]snc12 | 23.8 µM (inactive) | 49.8 µM (inactive) | 42.2 µM (inactive) | 24.5 µM (inactive) | > 100 µM (inactive) | 22.3 µM (inactive) | 22.6 µM (inactive) | 48.8 µM (inactive) | > 100 µM (inactive) | 38.6 µM (inactive) | 25.2 µM (inactive) | 88.3 µM (inactive) | 37.9 µM (inactive) | 23.2 µM (inactive) |  | 22.7 µM (inactive) | 17.6 µM (inactive) |  |  | 
5 | COc1ccc2c(c1OC)OC[C@@H](C1=CC(=O)C=C(O)C1=O)C2 | 18.1 µM (inactive) | 12 µM (inactive) | 4.8 µM (inactive) | 12.4 µM (inactive) | 16.6 µM (inactive) | 12.1 µM (inactive) | 2.2 µM (inactive) | 11.7 µM (inactive) | 12.5 µM (inactive) | 18.2 µM (inactive) | 6.31 µM (inactive) | 17.2 µM (inactive) |  | 1.36 µM (inactive) | 15.7 µM (inactive) | 4.7 µM (inactive) | 0.641 µM (active) | 20.6 µM (inactive) |  | 24.5 µM (inactive)
6 | O=C1c2ccccc2-n2c1nc1ccc([N+](=O)[O-])cc1c2=O | 26.4 µM (inactive) | 51.5 µM (inactive) | 58.9 µM (inactive) | 91.8 µM (inactive) | > 100 µM (inactive) | 44.2 µM (inactive) | 30.1 µM (inactive) | 53.7 µM (inactive) | 93.1 µM (inactive) | > 100 µM (inactive) | 28.8 µM (inactive) | > 100 µM (inactive) | 20.2 µM (inactive) | 34.8 µM (inactive) | > 100 µM (inactive) | 27.1 µM (inactive) | 13.9 µM (inactive) | > 100 µM (inactive) |  | > 100 µM (inactive)
7 | COc1ccc([C@@H]2OC(=O)C3C2C(=O)O[C@H]3c2ccc(OC)cc2)cc1 (stereo partly drawn) |  |  | > 100 µM (inactive) |  | > 100 µM (inactive) | > 100 µM (inactive) | > 100 µM (inactive) | > 100 µM (inactive) | > 100 µM (inactive) | > 100 µM (inactive) | > 100 µM (inactive) | > 100 µM (inactive) | > 100 µM (inactive) | > 100 µM (inactive) |  | > 100 µM (inactive) | > 100 µM (inactive) |  |  | 
8 | Cc1ccc(N/C(Sc2ccccc2)=C(/C(Cl)=C(Cl)Cl)[N+](=O)[O-])c(C)c1 | 14 µM (inactive) | 17.5 µM (inactive) | 32.8 µM (inactive) | 21.5 µM (inactive) | 37.8 µM (inactive) | 30.6 µM (inactive) | 18 µM (inactive) | 19.5 µM (inactive) | 22.1 µM (inactive) | 33.8 µM (inactive) | 23.3 µM (inactive) | 17.7 µM (inactive) | 17 µM (inactive) | 17.9 µM (inactive) | 36.1 µM (inactive) | 17.1 µM (inactive) | 18.2 µM (inactive) | 44.4 µM (inactive) |  | 23.7 µM (inactive)

Source: ChEMBL document CHEMBL1201862, “PubChem BioAssay data set” (2004)
